In EP4806449A1, “ANTIVIRAL FOOD PRODUCT” (Creaciones Aromáticas Industriales, S.A., priority 2023, dated 2025):
Values after ≈ are worked out from the molar mass of the structure shown.

Columns and labels:
human coronavirus 229E [1] = experiment: microbe, parasite or virus in culture; settings: MRC5
Protocol: (§4) In this study, the ability of the product object of the invention to inhibit the infectivity of human coronavirus 229E was determined. To that end, different concentrations of grape extract were incubated together with a defined concentration of the virus of interest for 30 minutes. Exposure of host cells to the virus causes the virus to replicate within the cells, which produces a cytopathic effect on the cells that is quantified by means of a cell viability assay after 5 days of exposure.
(§5) The MRC-5 cell line (lung-derived fibroblasts) from the American Type Culture Collection (ATCC) (CCL-171) was used. […]
(§6) A stock solution of the test substance was prepared in dimethyl sulfoxide (DMSO) at 100 mg/ml. […] Next, 0.25 ml of each dilution were mixed with 0.25 ml of a 229E inoculum diluted in 2% FBS EMEM medium, with the inoculum at an infectious concentration of 1000 TCID50/ml and the maximum concentration of the extract at 1 mg/ml (concentration range analysed in the medium: 7.81-1000 µg/ml). […]
(§7) To that end, a stock solution of the test substance was prepared in dimethyl sulfoxide (DMSO) at 50 mg/ml. […] Next, 0.25 ml of each dilution were mixed with 0.25 ml of a 229E inoculum diluted in 2% FBS EMEM medium, with the inoculum at an infectious concentration of 1000 TCID50/ml and the maximum concentration of the extract at 1 mg/ml (concentration range analysed in the medium: 0.78125 µg/ml - 100 µg/ml). […]

human coronavirus 229E [2] = settings: positive control, dose range 0.06-264 µg/ml
Protocol: as §4, §5, §6, §7

[3] = Toxicity controls without virus (MTT cell viability); assay type: cell-based; settings: human; MRC-5 cells without 229E virus; 4.5h treatment; MTT after 5 days
Protocol: (§1) The MRC-5 cell line (lung-derived fibroblasts) from the American Type Culture Collection (ATCC) (CCL-171) was used. Cells were kept at 37°C and 5% CO2 in Eagle minimum essential medium (EMEM) supplemented with 10% foetal bovine serum (FBS) and antibiotics, trypsinising every 3-4 days, before reaching 90% confluence. Coronavirus 229E was obtained from the ATCC (VR-740) and amplified in MRC-5 cells, according to the ATCC protocol.
(§2) In both experiments, 5 days post-infection, differences in cell viability associated with the cytopathic effect of the virus or toxicity of the treatments were analysed by means of the MTT assay. The MTT assay is a colorimetric assay that measures the activity of enzymes that transform the MTT (methylthiazolyldiphenyl-tetrazolium bromide) molecule to formazan, purple in colour. Briefly, the medium was aspirated from the wells and 0.1 ml of 1 mg/ml MTT solution in EMEM was added to each well, and incubated at 37°C for 2 hours. Next, the MTT solution was aspirated, formazan crystals were dissolved in 0.1 ml of DMSO and absorbance was read at 570 nm (reference 660 nm). The mean absorbance values of the uninfected controls was considered to be 100% cell viability.
(§3) In order to evaluate the results, the following variables were calculated: • CC50: Half maximal cytotoxic concentration, which is the concentration of the compound of interest causing 50% toxicity. […]

MRC-5 cells = experiment: as above; assay type: cell-based; settings: MRC-5 cells without 229E virus; 4.5h treatment; MTT after 5 days
Protocol: as §1, §2, §3

CCN(CC)CCCC(C)Nc1ccnc2cc(Cl)ccc12 (stereo not shown) [Chloroquine, chloroquine]
EC50 (human coronavirus 229E [1]): 5.96 µg/mL (≈ 18.6 µM)
clear antiviral effect starting from (human coronavirus 229E [2]): ≥ 16.5 µg/mL
CC50 at 4.5 h [3]: > 264 µg/mL
CC50 (MRC-5 cells): >264 µg/mL
